Laboratory results as given in patent US9315520B2, “2-amino-6-methyl-4,4a,5,6-tetrahydropyrano[3,4-d][1,3]thiazin-8a(8H)-yl-1,3-thiazol-4-yl amides” (Pfizer Inc., priority 2014, dated 2016).
Structures can show the parent of a compound that is named as a salt. Where two headings read alike, the source gives them in different places.

Target: BACE1 (Homo sapiens (Human), UniProt P56817)
Experiment: BACE1 Cell-Free Assay (fluorescence polarization)
Format: biochemical
Details: read-out: BACE1 Cell-free Assay IC50
Excerpt: This assay measures the inhibition of the beta-secretase enzyme as it cleaves a non-native peptide.
A synthetic APP substrate that can be cleaved by beta-secretase having N-terminal biotin and made fluorescent by the covalent attachment of Oregon Green at the Cys residue is used to assay beta-secretase activity in the presence or absence of the inhibitory compounds. […] The BACE1 enzyme is affinity purified material from conditioned media of CHO-K1 cells that have been transfected with a soluble BACE construct (BACE1deltaTM96His). […] Plates are covered and incubated for 3 hours at 37° C. […] The activity of the beta-secretase enzyme is detected by changes in the fluorescence polarization that occur when the substrate is cleaved by the enzyme.

[1] = geometric mean of 2-4 determinations unless otherwise indicated (b: ≧5; c: single determination)

Sequence of BACE1 (P56817 46-457): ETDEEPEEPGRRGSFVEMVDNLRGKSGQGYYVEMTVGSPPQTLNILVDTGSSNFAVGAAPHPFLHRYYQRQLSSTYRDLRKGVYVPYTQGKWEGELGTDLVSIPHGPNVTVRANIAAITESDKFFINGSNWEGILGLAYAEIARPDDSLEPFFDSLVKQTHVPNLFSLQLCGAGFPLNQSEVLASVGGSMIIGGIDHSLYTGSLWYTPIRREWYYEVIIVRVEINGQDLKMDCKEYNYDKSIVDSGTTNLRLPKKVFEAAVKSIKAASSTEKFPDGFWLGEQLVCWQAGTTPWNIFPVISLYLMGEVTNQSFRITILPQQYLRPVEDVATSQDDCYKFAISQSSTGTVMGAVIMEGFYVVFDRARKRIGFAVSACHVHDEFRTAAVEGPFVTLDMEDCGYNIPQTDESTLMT

SMILES | IC50 [1] | IC50
C[C@H]1C[C@H]2CSC(N)=N[C@@]2(c2nc(NC(=O)c3ccc(F)cn3)cs2)CO1 [Example 9, N-{2-[(4aR,6S,8aR)-2-amino-6-methyl-4,4a,5,6-tetrahydropyrano[3,4-d][1,3]thiazin-8a(8H)-yl]-1,3-thiazol-4-yl}-5-fluoropyridine-2-carboxamide] | 189 nM | –
COc1cnc(C(=O)Nc2csc([C@]34CO[C@@H](C)C[C@H]3CSC(N)=N4)n2)cn1 [Example 10, N-{2-[(4aR,6S,8aR)-2-amino-6-methyl-4,4a,5,6-tetrahydropyrano[3,4-d][1,3]thiazin-8a(8H)-yl]-1,3-thiazol-4-yl}-5-methoxypyrazine-2-carboxamide] | 536 nM | –
C[C@H]1C[C@H]2CSC(N)=N[C@@]2(c2nc(NC(=O)c3cnc(CF)cn3)cs2)CO1 [Example 11, N-{2-[(4aR,6S,8aR)-2-amino-6-methyl-4,4a,5,6-tetrahydropyrano[3,4-d][1,3]thiazin-8a(8H)-yl]-1,3-thiazol-4-yl}-5-(fluoromethyl)pyrazine-2-carboxamide] | 315 nM | –
C[C@H]1C[C@H]2CSC(N)=N[C@@]2(c2nc(NC(=O)c3cnc(OCC(F)F)cn3)cs2)CO1 [Example 12, N-{2-[(4aR,6S,8aR)-2-amino-6-methyl-4,4a,5,6-tetrahydropyrano[3,4-d][1,3]thiazin-8a(8H)-yl]-1,3-thiazol-4-yl}-5-(2,2-difluoroethoxy)pyrazine-2-carboxamide] | 280 nM | –
Cc1cc(F)cnc1C(=O)Nc1csc([C@]23CO[C@@H](C)C[C@H]2CSC(N)=N3)n1 [Example 13, N-{2-[(4aR,6S,8aR)-2-amino-6-methyl-4,4a,5,6-tetrahydropyrano[3,4-d][1,3]thiazin-8a(8H)-yl]-1,3-thiazol-4-yl}-5-fluoro-3-methylpyridine-2-carboxamide, formate salt] | – | 90 nM
C[C@H]1C[C@H]2CSC(N)=N[C@@]2(c2nc(NC(=O)c3ccc(F)cc3)cs2)CO1 [Example 14, N-{2-[(4aR,6S,8aR)-2-amino-6-methyl-4,4a,5,6-tetrahydropyrano[3,4-d][1,3]thiazin-8a(8H)-yl]-1,3-thiazol-4-yl}-4-fluorobenzamide, formate salt] | – | 866 nM
C[C@H]1C[C@H]2CSC(N)=N[C@@]2(c2nc(NC(=O)c3cnc(C(F)F)cn3)cs2)CO1 [Example 15, N-{2-[(4aR,6S,8aR)-2-amino-6-methyl-4,4a,5,6-tetrahydropyrano[3,4-d][1,3]thiazin-8a(8H)-yl]-1,3-thiazol-4-yl}-5-(difluoromethyl)pyrazine-2-carboxamide] | 145 nM | –
C[C@H]1C[C@H]2CSC(N)=N[C@@]2(c2nc(NC(=O)c3cnc(C(F)(F)F)cn3)cs2)CO1 [Example 16, N-{2-[(4aR,6S,8aR)-2-amino-6-methyl-4,4a,5,6-tetrahydropyrano[3,4-d][1,3]thiazin-8a(8H)-yl]-1,3-thiazol-4-yl}-5-(trifluoromethyl)pyrazine-2-carboxamide, formate salt] | – | 193 nM
C[C@H]1C[C@H]2CSC(N)=N[C@@]2(c2nc(NC(=O)c3ncc(F)cc3F)cs2)CO1 [Example 18, N-{2-[(4aR,6S,8aR)-2-amino-6-methyl-4,4a,5,6-tetrahydropyrano[3,4-d][1,3]thiazin-8a(8H)-yl]-1,3-thiazol-4-yl}-3,5-difluoropyridine-2-carboxamide] | 153 nM | –
COc1ccc(C(=O)Nc2csc([C@]34CO[C@@H](C)C[C@H]3CSC(N)=N4)n2)nc1 [Example 19, N-{2-[(4aR,6S,8aR)-2-amino-6-methyl-4,4a,5,6-tetrahydropyrano[3,4-d][1,3]thiazin-8a(8H)-yl]-1,3-thiazol-4-yl}-5-methoxypyridine-2-carboxamide] | 259 nM | –
C[C@H]1C[C@H]2CSC(N)=N[C@@]2(c2nc(NC(=O)c3cc4ccccn4n3)cs2)CO1 [Example 23, N-{2-[(4aR,6S,8aR)-2-amino-6-methyl-4,4a,5,6-tetrahydropyrano[3,4-d][1,3]thiazin-8a(8H)-yl]-1,3-thiazol-4-yl}pyrazolo[1,5-a]pyridine-2-carboxamide] | 1000 nM | –

More lines, main results first:

IC50 [1] | SMILES | IC50
7 nM | C[C@H]1C[C@H]2CSC(N)=N[C@@]2(c2nc(NC(=O)c3coc(CF)n3)cs2)CO1 [Example 3, N-{2-[(4aR,6S,8aR)-2-amino-6-methyl-4,4a,5,6-tetrahydropyrano[3,4-d][1,3]thiazin-8a(8H)-yl]-1,3-thiazol-4-yl}-2-(fluoromethyl)-1,3-oxazole-4-carboxamide] | –
9 nM | C[C@H]1C[C@H]2CSC(N)=N[C@@]2(c2nc(NC(=O)c3ccn(C(F)F)n3)cs2)CO1 [Example 4, N-{2-[(4aR,6S,8aR)-2-amino-6-methyl-4,4a,5,6-tetrahydropyrano[3,4-d][1,3]thiazin-8a(8H)-yl]-1,3-thiazol-4-yl}-1-(difluoromethyl)-1H-pyrazole-3-carboxamide] | –
22 nM | C[C@H]1C[C@H]2CSC(N)=N[C@@]2(c2nc(NC(=O)c3ccc(C#N)cn3)cs2)CO1 [Example 5, N-{2-[(4aR,6S,8aR)-2-amino-6-methyl-4,4a,5,6-tetrahydropyrano[3,4-d][1,3]thiazin-8a(8H)-yl]-1,3-thiazol-4-yl}-5-cyanopyridine-2-carboxamide] | –
54 nM | C[C@H]1C[C@H]2CSC(N)=N[C@@]2(c2nc(NC(=O)c3ccc(C(F)(F)F)cn3)cs2)CO1 [Example 17, N-{2-[(4aR,6S,8aR)-2-amino-6-methyl-4,4a,5,6-tetrahydropyrano[3,4-d][1,3]thiazin-8a(8H)-yl]-1,3-thiazol-4-yl}-5-(trifluoromethyl)pyridine-2-carboxamide] | –
108 nM | C[C@H]1C[C@H]2CSC(N)=N[C@@]2(c2nc(NC(=O)c3ccc(OC(F)(F)F)cn3)cs2)CO1 [Example 20, N-{2-[(4aR,6S,8aR)-2-amino-6-methyl-4,4a,5,6-tetrahydropyrano[3,4-d][1,3]thiazin-8a(8H)-yl]-1,3-thiazol-4-yl}-5-(trifluoromethoxy)pyridine-2-carboxamide] | –
106 nM | C[C@H]1C[C@H]2CSC(N)=N[C@@]2(c2nc(NC(=O)c3ccc(OC(F)F)cc3)cs2)CO1 [Example 21, N-{2-[(4aR,6S,8aR)-2-amino-6-methyl-4,4a,5,6-tetrahydropyrano[3,4-d][1,3]thiazin-8a(8H)-yl]-1,3-thiazol-4-yl}-4-(difluoromethoxy)benzamide] | –
13 nM | CC#CCOc1cnc(C(=O)Nc2csc([C@]34CO[C@@H](C)C[C@H]3CSC(N)=N4)n2)cn1 [Example 22, N-{2-[(4aR,6S,8aR)-2-amino-6-methyl-4,4a,5,6-tetrahydropyrano[3,4-d][1,3]thiazin-8a(8H)-yl]-1,3-thiazol-4-yl}-5-(but-2-yn-1-yloxy)pyrazine-2-carboxamide] | –
81 nM | C[C@H]1C[C@H]2CSC(N)=N[C@@]2(c2nc(NC(=O)c3ccn(C)n3)cs2)CO1 [Example 24, N-{2-[(4aR,6S,8aR)-2-amino-6-methyl-4,4a,5,6-tetrahydropyrano[3,4-d][1,3]thiazin-8a(8H)-yl]-1,3-thiazol-4-yl}-1-methyl-1H-pyrazole-3-carboxamide] | –
74 nM | C[C@H]1C[C@H]2CSC(N)=N[C@@]2(c2nc(NC(=O)c3ccc(C(F)F)cn3)cs2)CO1 [Example 25, N-{2-[(4aR,6S,8aR)-2-amino-6-methyl-4,4a,5,6-tetrahydropyrano[3,4-d][1,3]thiazin-8a(8H)-yl]-1,3-thiazol-4-yl}-5-(difluoromethyl)pyridine-2-carboxamide] | –
